ChEMBL document CHEMBL1201862, “PubChem BioAssay data set” (2004)
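Dose response: 5 concentrations. Exposure: 48 h. Format: 96-well plates. Endpoint: linear interpolation; highest concentration if not reached. GI50 marks 50% less growth.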 Active and inactive are the calls of the source. Rule as the data show it: active = GI50 up to about 1.1 µM and inactive = higher. Where a SMILES comes first, the peptide text is derived from it. The star is where a group is joined. OSu = O=C1CCC(=O)N1O*; OBn = c1ccc(CO*)cc1; Bn = c1ccc(C*)cc1

Legend:
Experiment in all cases: growth of human tumour cells (NCI), 48 h
A549 = tested on: A549
RXF 393 = tested on: RXF 393
T47D = tested on: T47D
UACC-62 = tested on: UACC-62
UACC-257 = tested on: UACC-257
CCRF-CEM = tested on: CCRF-CEM
HOP-92 = tested on: HOP-92
COLO 205 = tested on: COLO 205
A498 = tested on: A498
KM12 = tested on: KM12
HT-29 = tested on: HT-29
TK-10 = tested on: TK-10
HCC 2998 = tested on: HCC 2998
NCI-H522 = tested on: NCI-H522
SK-MEL-28 = tested on: SK-MEL-28
MCF7 = tested on: MCF7
BT-549 = tested on: BT-549
OVCAR-3 = tested on: OVCAR-3
SR = tested on: SR

| Compound | GI50 (A549) | GI50 (RXF 393) | GI50 (T47D) | GI50 (UACC-62) | GI50 (UACC-257) | GI50 (CCRF-CEM) | GI50 (HOP-92) | GI50 (COLO 205) | GI50 (A498) | GI50 (KM12) | GI50 (HT-29) | GI50 (TK-10) | GI50 (HCC 2998) | GI50 (NCI-H522) | GI50 (SK-MEL-28) | GI50 (MCF7) | GI50 (BT-549) | GI50 (OVCAR-3) | GI50 (SR) |
| --- | --- | --- | --- | --- | --- | --- | --- | --- | --- | --- | --- | --- | --- | --- | --- | --- | --- | --- | --- |
| O=C1c2c(O)cccc2C(C2OC(CO)C(O)C(O)C2O)c2cc(CO)cc(O)c21 (stereo unspecified) | > 100 µM (inactive) | > 100 µM (inactive) | > 100 µM (inactive) | > 100 µM (inactive) | > 100 µM (inactive) | > 100 µM (inactive) | > 100 µM (inactive) | > 100 µM (inactive) | > 100 µM (inactive) | > 100 µM (inactive) | > 100 µM (inactive) | > 100 µM (inactive) | > 100 µM (inactive) | > 100 µM (inactive) | > 100 µM (inactive) | > 100 µM (inactive) | > 100 µM (inactive) | – | – |
| N#CC(CC(=O)O)=C(c1ccccc1)c1ccccc1 | > 100 µM (inactive) | – | – | > 100 µM (inactive) | > 100 µM (inactive) | – | > 100 µM (inactive) | > 100 µM (inactive) | > 100 µM (inactive) | > 100 µM (inactive) | > 100 µM (inactive) | > 100 µM (inactive) | > 100 µM (inactive) | > 100 µM (inactive) | > 100 µM (inactive) | > 100 µM (inactive) | > 100 µM (inactive) | > 100 µM (inactive) | > 100 µM (inactive) |
| N#CCCN(CCC#N)c1ccc(/C=C2\N=C(c3ccccc3)N(c3ccccc3)C2=O)cc1 | > 100 µM (inactive) | > 100 µM (inactive) | > 100 µM (inactive) | > 100 µM (inactive) | > 100 µM (inactive) | 2.26 µM (inactive) | 5.19 µM (inactive) | 9.38 µM (inactive) | > 100 µM (inactive) | > 100 µM (inactive) | 8.97 µM (inactive) | > 100 µM (inactive) | – | 18.7 µM (inactive) | > 100 µM (inactive) | > 100 µM (inactive) | 57.1 µM (inactive) | > 100 µM (inactive) | – |
| CCOC(=O)CCC(NC(=O)c1ccc(NCc2ccc3nc(OC)c(OC)nc3c2)c2ccccc12)C(=O)OCC (stereo unspecified) | > 100 µM (inactive) | 31 µM (inactive) | > 100 µM (inactive) | 73.8 µM (inactive) | > 100 µM (inactive) | – | 16.2 µM (inactive) | > 100 µM (inactive) | 61.8 µM (inactive) | > 100 µM (inactive) | > 100 µM (inactive) | 66.2 µM (inactive) | > 100 µM (inactive) | > 100 µM (inactive) | > 100 µM (inactive) | 84.9 µM (inactive) | > 100 µM (inactive) | 94.2 µM (inactive) | – |
| COc1ccc(O)c(/C(C)=N/NC(=S)N(C)C)c1 | 23.4 µM (inactive) | > 100 µM (inactive) | 40.9 µM (inactive) | 26.1 µM (inactive) | 63.4 µM (inactive) | 8.93 µM (inactive) | > 100 µM (inactive) | 21.3 µM (inactive) | > 100 µM (inactive) | 42 µM (inactive) | 0.0306 µM (active) | – | > 61.9 µM (inactive) | 1.33 µM (inactive) | 35.7 µM (inactive) | – | 36 µM (inactive) | 37.3 µM (inactive) | 25.8 µM (inactive) |
| CC(C)(C)n1c(=O)n2c(-c3ccccc3)c(-c3ccccc3)n2c1=O | 56.9 µM (inactive) | 76 µM (inactive) | > 100 µM (inactive) | > 100 µM (inactive) | > 100 µM (inactive) | – | > 100 µM (inactive) | > 100 µM (inactive) | > 100 µM (inactive) | > 100 µM (inactive) | 66.7 µM (inactive) | > 100 µM (inactive) | 49.7 µM (inactive) | 17.5 µM (inactive) | > 100 µM (inactive) | 56.6 µM (inactive) | 53.7 µM (inactive) | > 100 µM (inactive) | – |
| CCCCN(CCCC)CC(O)c1cc(-c2ccc(C(F)(F)F)cc2)nc(-c2ccc(C(F)(F)F)cc2)c1 (stereo unspecified) | – | – | 34.4 µM (inactive) | > 100 µM (inactive) | 49.3 µM (inactive) | 50.9 µM (inactive) | 61.5 µM (inactive) | 79.8 µM (inactive) | > 100 µM (inactive) | – | > 100 µM (inactive) | > 100 µM (inactive) | 22.6 µM (inactive) | 75.3 µM (inactive) | > 100 µM (inactive) | > 10 µM (inactive) | – | 94.8 µM (inactive) | > 100 µM (inactive) |
| c1csc(-c2nn3c(C45CC6CC(CC(C6)C4)C5)nnc3s2)c1 | > 100 µM (inactive) | > 100 µM (inactive) | > 100 µM (inactive) | > 100 µM (inactive) | > 100 µM (inactive) | > 100 µM (inactive) | > 100 µM (inactive) | > 100 µM (inactive) | > 100 µM (inactive) | – | > 100 µM (inactive) | – | > 100 µM (inactive) | > 100 µM (inactive) | > 100 µM (inactive) | – | – | > 100 µM (inactive) | > 100 µM (inactive) |
| CC(C)c1cc(C(C)C)c(Cl)c(Cl)c1O.CC(C)c1cc(Cl)c(O)c(C(C)C)c1Cl | 40.2 µM (inactive) | 12.5 µM (inactive) | – | 19.6 µM (inactive) | 20 µM (inactive) | 37.1 µM (inactive) | 10.5 µM (inactive) | 20.2 µM (inactive) | – | 24.4 µM (inactive) | 24 µM (inactive) | 26.5 µM (inactive) | 28.8 µM (inactive) | 14 µM (inactive) | 24.1 µM (inactive) | 23.7 µM (inactive) | 19.9 µM (inactive) | 24.5 µM (inactive) | 9.25 µM (inactive) |
| O=c1ccn(C2OC(CN(O)CCC3C(O)C(CO)OC3n3ccc(=O)[nH]c3=O)C(O)C2O)c(=O)[nH]1 (stereo unspecified) | > 100 µM (inactive) | – | > 100 µM (inactive) | – | – | – | > 100 µM (inactive) | > 100 µM (inactive) | > 100 µM (inactive) | > 100 µM (inactive) | > 100 µM (inactive) | > 100 µM (inactive) | > 100 µM (inactive) | – | – | > 100 µM (inactive) | > 100 µM (inactive) | > 100 µM (inactive) | – |
| CCOC(=O)c1c(NC(=S)NCc2ccccc2)sc2c1CCN(C)C2 | 53.6 µM (inactive) | – | 41.5 µM (inactive) | > 100 µM (inactive) | > 100 µM (inactive) | 17.6 µM (inactive) | – | 46.1 µM (inactive) | 59.6 µM (inactive) | 24.4 µM (inactive) | 45.5 µM (inactive) | 64.9 µM (inactive) | – | – | – | 52.6 µM (inactive) | 59 µM (inactive) | 36.5 µM (inactive) | – |
| C=CCC1NCCC2=C1C(S(=O)(=O)c1ccc(C)cc1)c1ccccc12 (stereo unspecified) | 15.1 µM (inactive) | 5.66 µM (inactive) | 10.4 µM (inactive) | 11.7 µM (inactive) | 20.2 µM (inactive) | 7.96 µM (inactive) | 9.95 µM (inactive) | 2 µM (inactive) | 19 µM (inactive) | 9.46 µM (inactive) | 16 µM (inactive) | 16.4 µM (inactive) | 1.85 µM (inactive) | 10.1 µM (inactive) | 12.4 µM (inactive) | 7.13 µM (inactive) | – | 12.5 µM (inactive) | 3.64 µM (inactive) |
| Cc1ccc(S(=O)(=O)NC(=O)Nc2ccc(C(=O)O)c(O)c2)cc1 | > 100 µM (inactive) | > 100 µM (inactive) | – | > 100 µM (inactive) | – | > 100 µM (inactive) | > 100 µM (inactive) | > 100 µM (inactive) | 68.2 µM (inactive) | > 100 µM (inactive) | > 100 µM (inactive) | > 100 µM (inactive) | > 100 µM (inactive) | – | – | > 100 µM (inactive) | – | > 100 µM (inactive) | > 100 µM (inactive) |
| COc1ccc2c(c1)C/C(=C\c1ccc(O)c(OC)c1)C2=O | > 100 µM (inactive) | – | – | > 100 µM (inactive) | – | – | – | – | > 100 µM (inactive) | – | > 100 µM (inactive) | > 100 µM (inactive) | > 100 µM (inactive) | – | > 100 µM (inactive) | > 100 µM (inactive) | > 100 µM (inactive) | > 100 µM (inactive) | > 100 µM (inactive) |
| CCC(=O)N(c1ccccc1)C(C)CN1CCC(O)(c2cccc(C(F)(F)F)c2)CC1 (stereo unspecified) | 39 µM (inactive) | > 100 µM (inactive) | 33.7 µM (inactive) | 22.1 µM (inactive) | 17.5 µM (inactive) | 19.9 µM (inactive) | 22.8 µM (inactive) | 14.7 µM (inactive) | 26.8 µM (inactive) | 35.2 µM (inactive) | 13 µM (inactive) | 25.1 µM (inactive) | 26.5 µM (inactive) | 20.2 µM (inactive) | 23.1 µM (inactive) | – | – | 45.6 µM (inactive) | – |
| COc1cc2c(cc1C)NC(=O)/C2=C/c1c(Cl)n(C)c2ccccc12 | 10.2 µM (inactive) | 4.1 µM (inactive) | 2.62 µM (inactive) | 5.73 µM (inactive) | 11.9 µM (inactive) | 1.9 µM (inactive) | – | 5.11 µM (inactive) | 5.86 µM (inactive) | 3.34 µM (inactive) | 6.08 µM (inactive) | 12.4 µM (inactive) | 5.18 µM (inactive) | – | 13 µM (inactive) | 3.45 µM (inactive) | 4.57 µM (inactive) | 4.11 µM (inactive) | – |
| CC(C)CC(NC(=O)C(N)CCC(=O)OCc1ccccc1)C(=O)NC(COCc1ccccc1)C(=O)NC(Cc1ccccc1)C(=O)ON1C(=O)CCC1=O (stereo unspecified) (H-E(OBn)LS(Bn)F-OSu; configuration not given here) | 33.6 µM (inactive) | 21.8 µM (inactive) | – | 26.1 µM (inactive) | 28.3 µM (inactive) | 26.6 µM (inactive) | 15 µM (inactive) | – | – | 32.1 µM (inactive) | 38.2 µM (inactive) | 26.7 µM (inactive) | – | 18.5 µM (inactive) | 22.1 µM (inactive) | 27.4 µM (inactive) | – | – | 28.6 µM (inactive) |
